# In article PMC7175277, “Hydroxylamine Analogue of Agmatine: Magic Bullet for Arginine Decarboxylase” (Biomolecules, 2020):
# Key:
# [1] = target: E. coli ODC (Escherichia coli, UniProt P21169); assay: E. coli ODC activity assay (HPLC of Put); assay type: biochemical
# Description: (§1) The purification was performed using a modified procedure of earlier publication. E. coli strain DH5α was grown in Luria-Bertani broth at +37 °C with shaking (200 rpm) overnight. The cells were collected by centrifugation and the pellet was homogenized with Potter-Elvehjem in 10 volumes (w/v) of ice-cold 50 mM Tris-HCl pH 7.4, 1 mM DTT. The cell debris was removed by centrifugation at 12,000 g for 30 min at +4 °C. Solid (NH4)2SO4 was added to the supernatant, and the pellet precipitating between 39% and 53% saturation was separated. The precipitate was resuspended in ice-cold buffer containing 50 mM Tris-HCl pH 7.4 and 1 mM DTT and desalted by passage through Sephadex G-25 column (NAP-10 column, GE Healthcare). The protein concentration was measured with Bio-Rad protein reagent, and the partially purified enzyme preparation was mixed with 20% glycerol and aliquoted for storage at −80 °C.
# The ADC reaction mixture contained 50 mM Tris-HCl pH 7.8, 4 mM MgCl2, 1 mM DTT, 1.0 or 0.1 mM PLP and 20 μg of partially purified enzyme preparation in a total volume of 162 μL. The ODC reaction mixture contained 50 mM Tris-HCl pH 7.8, 1 mM EDTA, 2.4 mM DTT, 0.1 mM PLP and 20 μg of partially purified enzyme preparation. […] After incubation for 30 min (ADC) or 20 min (ODC) at +40 °C, 20 μL of 50% sulphosalicylic acid containing 50 μM diaminoheptane (internal standard) was added and the samples were analyzed for the content of agmatine (ADC) and Put (ODC) with HPLC as described previously. The kinetic parameters and IC50 values were determined with the aid of GraphPad Prism version 5.03 using nonlinear regression analysis.
# [2] = tested on: A. chrysogenum HY strain; assay: Polyamine content in the fungi, HY strain; assay type: cell-based, Acremonium chrysogenum; details: 24 h
# Description: (§2) WT and HY A. chrysogenum strains were preliminarily grown in tubes on CD medium slants for 7 days at 25 °C and used for the inoculation of 30 mL of a liquid CD medium (seed medium). The strains were cultivated on CD medium for 48 h at 26 °C and inoculated into ten volumes of CD medium. The fermentation was carried out for 120 h at 26 °C in 250-mL Erlenmeyer flasks on a CERTOMAT BS-1 shaker (Sartorius, Germany) at 230 rpm, as described earlier. After 24 h of culture, 1 mL aliquots were removed, fungi were separated by centrifugation (15 min, 14,000 g) and washed with H2O (3 × 2 mL). The washed biomass was subjected to three cycles of freezing (−80 °C) and thawing at 20 °C in 5% perchloric acid. After the final thaw, samples were vortexed for 2 min and centrifuged for 10 min at 14,000 g. The supernatant was used for the determination of polyamine content.
# (§3) The dry biomass was prepared from 2 mL aliquots of fermentation media after 24 h. The biomass was separated by centrifugation (15 min, 14,000 g), the precipitated fungi cells were washed in triplicate with 10 volumes of H2O, dried at 80 °C for 96 h to a constant weight and used for normalization of polyamine content in the fungi.
# (§4) Polyamines were determined by HPLC from 50 µL of the 5% perchloric acid supernatant using a precolumn modification with Dans-Cl following mostly the published protocol. 1,7-Diaminoheptane was used as an internal standard and proline applied to quench the dansylation reaction. The solution of the dansylated polyamines in toluene (2 μL) was mixed with 50% aq. ethanol (13 µL) and applied on a reversed phase column (Cosmosil C18-MS-II, 250 × 4.6 mm, 5 µm). The column was eluted (1 mL/min) with the gradient: 0 min—0% B; 4 min—65% B; 17 min—65% B; 19 min—100% B, 23 min—100% B, 25 min—0% B; 30 min—0% B. System A—40% acetonitrile, 60% H2O. System B—80% acetonitrile, 20% tetrahydrofuran. Column temperature 40 °C, pressure 80–120 bar, fluorescent detection: λex 340 nm, λem 530 nm (detector RF-20A, Shimadzu Scientific Instrument, Columbia, MD, USA).
# [3] = tested on: A. chrysogenum WT strain; assay: Polyamine content in the fungi, WT strain; assay type: cell-based, Acremonium chrysogenum; details: 24 h
# Description: as §2, §3, §4
# [4] = tested on: Acremonium chrysogenum high-cephalosporin-yielding (HY) RNCM F-4081D; assay: Fungal growth inhibition (drop-dilution, CD agar), HY strain; assay type: cell-based
# Text: (§5) Two strains of Acremonium chrysogenum were used in this study: the wild-type (Brotzu) isolate ATCC 11550 (WT) and high-cephalosporin-yielding RNCM F-4081D (HY), derived from the WT [37]. The cultivation conditions were the same as previously described. The filamentous fungi were cultivated on agarized Czapek-Dox (CD) medium (30 g/L sucrose, 2 g/L NaNO3, 1 g/L K2HPO4, 0.5 g/L MgSO4×7 H2O, 0.5 g/L KCl, 0.01 g/L FeSO4×7 H2O, 20 g/L agar, pH 7.0–7.4). To determine the toxic effect of AO-Agm, APA, DFMA and DFMO on the growth of fungal cells the drop-dilution method was used with some modifications as described earlier. Cells were collected from agar slants and diluted with 0.9% NaCl solution up to OD600 = 0.5 (basic concentration), followed by serial tenfold dilutions with the same solution. […] The inoculated Petri dishes were incubated for 21 days at 26 °C. The inhibitory effects of the compounds were measured every three days after inoculation and evaluated by measuring the ratio of colony growth on agarized CD medium supplemented with AO-Agm, APA, DFMA, or DFMO to the growth in the control (agarized CD medium without any additions). The formula: growth inhibition % = [(Dc − Dt)/Dc] × 100, where Dc indicates the colony diameter in control set, and Dt indicates the colony diameter in the treatment set that was used to determine the percent of fungal growth inhibition. The data recorded were measured in triplicate and repeated at least twice.
# [5] = tested on: Acremonium chrysogenum wild-type (WT) ATCC 11550; assay: Fungal growth inhibition (drop-dilution, CD agar), WT strain; assay type: cell-based
# Text: as §5
# [6] = substrate: N=C(N)NCCC[C@H](N)C(=O)O; assay: E. coli ADC activity assay (HPLC of agmatine); assay type: biochemical; details: other: partially purified ADC, pH 7.8
# Description: as §1
# […] After incubation for 30 min (ADC) or 20 min (ODC) at +40 °C, 20 μL of 50% sulphosalicylic acid containing 50 μM diaminoheptane (internal standard) was added and the samples were analyzed for the content of agmatine (ADC) and Put (ODC) with HPLC as described previously. The kinetic parameters and IC50 values were determined with the aid of GraphPad Prism version 5.03 using nonlinear regression analysis.
# E. coli ODC, sequence (P21169 whole entry): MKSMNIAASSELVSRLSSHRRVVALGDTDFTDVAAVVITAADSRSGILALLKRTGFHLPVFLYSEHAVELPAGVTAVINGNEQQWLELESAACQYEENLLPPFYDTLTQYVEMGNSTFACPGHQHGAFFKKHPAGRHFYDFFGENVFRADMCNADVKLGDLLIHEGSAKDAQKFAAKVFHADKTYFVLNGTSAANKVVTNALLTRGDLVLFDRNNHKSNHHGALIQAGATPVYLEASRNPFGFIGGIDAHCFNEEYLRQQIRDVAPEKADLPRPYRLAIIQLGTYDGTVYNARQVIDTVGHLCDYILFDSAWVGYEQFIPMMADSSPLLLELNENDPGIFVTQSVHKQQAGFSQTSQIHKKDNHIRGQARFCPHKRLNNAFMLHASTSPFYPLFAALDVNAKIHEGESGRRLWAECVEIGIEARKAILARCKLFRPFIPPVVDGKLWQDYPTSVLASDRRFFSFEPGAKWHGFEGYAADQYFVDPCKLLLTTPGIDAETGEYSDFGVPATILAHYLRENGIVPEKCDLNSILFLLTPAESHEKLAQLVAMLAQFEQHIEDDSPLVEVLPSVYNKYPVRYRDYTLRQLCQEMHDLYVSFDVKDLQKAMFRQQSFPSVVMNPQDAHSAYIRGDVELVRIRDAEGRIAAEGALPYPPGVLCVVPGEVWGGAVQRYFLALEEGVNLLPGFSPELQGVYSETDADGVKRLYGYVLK
molecule,measurement,setting,value
"NCCC[C@H](N)C(=O)O [L-Orn, L-ornithine]",Vmax,[1]; partially purified ODC,709 ± 7 nmol/h/mg protein
"NCCC[C@](N)(C(=O)O)C(F)F [DFMO, α-(Difluoromethyl)ornithine]",Put,[2]; 5 mM DFMO + 0.5 mM Spd,<10 pmol/mg Dry Weight
same,Spd,[2]; 5 mM DFMO + 0.5 mM Spd,"46,630 ± 6700 pmol/mg Dry Weight"
same,Spm,[2]; 5 mM DFMO + 0.5 mM Spd,340 ± 56 pmol/mg Dry Weight
same,Put,[2]; 5 mM DFMO,<10 pmol/mg Dry Weight
same,Spd,[2]; 5 mM DFMO,410 ± 60 pmol/mg Dry Weight
same,Spm,[2]; 5 mM DFMO,424 ± 39 pmol/mg Dry Weight
same,Potency to inhibit E. coli ODC,"[1]; 0.1 mM PLP, 15 min preincubation, 7 mM L-Orn",very low potency
same,Put,[3]; 5 mM DFMO + 0.5 mM Spd,<10 pmol/mg Dry Weight
same,Spd,[3]; 5 mM DFMO + 0.5 mM Spd,"11,530 ± 3690 pmol/mg Dry Weight"
same,Spm,[3]; 5 mM DFMO + 0.5 mM Spd,90 ± 30 pmol/mg Dry Weight
same,Put,[3]; 5 mM DFMO,<10 pmol/mg Dry Weight
same,Spd,[3]; 5 mM DFMO,140 ± 10 pmol/mg Dry Weight
same,Spm,[3]; 5 mM DFMO,170 ± 20 pmol/mg Dry Weight
same,Growth inhibition compared with 5 mM,"[4]; HY strain, 1 mM inhibitor",much less effective
same,inhibition at 5000 µM,"[4]; Hapsidospora chrysogena, 336 h, read-out: Growth inhibition",41%
same,Growth inhibition compared with 1 mM APA,[5]; 1 mM inhibitor,significantly less effective
same,Growth of WT strain,[5]; 5 mM inhibitor,completely inhibited
same,Effect of 0.5 mM Spd on the growth arrest caused by the inhibitor,[5]; 5 mM inhibitor + 0.5 mM Spd,reversed the growth arrest
same,inhibition at 5000 µM,"[5]; Hapsidospora chrysogena, ATCC11550, 336 h, 5 mM inhibitor, 14 days after inoculation on CD medium",100%
"E. coli ADC (Escherichia coli K-12) (protein, The kinetic parameters determined for the partially purified biosynthetic ADC from E. coli; endogenous in cells; host or cells: E. coli DH5α (39-53% ammonium sulphate fraction of the lysate, desalted)) MSDDMSMGLPSSAGEHGVLRSMQEVAMSSQEASKMLRTYNIAWWGNNYYDVNELGHISVCPDPDVPEARVDLAQLVKTREAQGQRLPALFCFPQILQHRLRSINAAFKRARESYGYNGDYFLVYPIKVNQHRRVIESLIHSGEPLGLEAGSKAELMAVLAHAGMTRSVIVCNGYKDREYIRLALIGEKMGHKVYLVIEKMSEIAIVLDEAERLNVVPRLGVRARLASQGSGKWQSSGGEKSKFGLAATQVLQLVETLREAGRLDSLQLLHFHLGSQMANIRDIATGVRESARFYVELHKLGVNIQCFDVGGGLGVDYEGTRSQSDCSVNYGLNEYANNIIWAIGDACEENGLPHPTVITESGRAVTAHHTVLVSNIIGVERNEYTVPTAPAEDAPRALQSMWETWQEMHEPGTRRSLREWLHDSQMDLHDIHIGYSSGIFSLQERAWAEQLYLSMCHEVQKQLDPQNRAHRPIIDELQERMADKMYVNFSLFQSMPDAWGIDQLFPVLPLEGLDQVPERRAVLLDITCDSDGAIDHYIDGDGIATTMPMPEYDPENPPMLGFFMVGAYQEILGNMHNLFGDTEAVDVFVFPDGSVEVELSDEGDTVADMLQYVQLDPKTLLTQFRDQVKKTDLDAELQQQFLEEFEAGLYGYTYLEDE",Km,[6],158 ± 5 µM
same,Vmax,[6],546 ± 5 nmol/h/mg protein
